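Values below derive from 48-hour exposures of cells grown in 96-well plates, with endpoints linearly interpolated between the two concentrations bracketing the appropriate inhibition level. At the TGI there is no net growth.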

Among the test systems are NCI-H460 lung; SF-539 CNS; COLO 205 colon; SNB-75 CNS; OVCAR-5 ovarian; NCI/ADR-RES ovarian; UACC-62 melanoma; A549 NSCLC; EKVX NSCLC; HCT-116 colon; M14 melanoma; PC-3 prostate; SF-295 CNS; MDA-MB-435; SN12C renal; OVCAR-4 ovarian; UO-31 renal; NCI-H23 lung; HCC-2998 colon; K-562 leukemia.
What all share (experiment): inhibition of tumour cell growth, NCI panel, 48 h

As to `CC1C=CN(N(C)C)C2=C1C(=O)c1cnccc1C2=O` (stereo not given), the TGI with NCI-H460 lung was found to be 0.389 µM; in the assay with SF-539 CNS, 1.26 µM; in the assay with COLO 205 colon, 2.45 µM; in the assay with SNB-75 CNS it was 0.868 µM; in the assay with OVCAR-5 ovarian it was 2.83 µM; in the assay on NCI/ADR-RES ovarian, 4.09 µM. Moreover, the TGI with UACC-62 melanoma was found to be 0.342 µM; in the assay with A549 NSCLC, 2.11 µM; with EKVX NSCLC, 2.07 µM; with HCT-116 colon, 1.48 µM; in the assay on M14 melanoma it was 1.62 µM; in the assay on PC-3 prostate, 7.89 µM. Moreover, the TGI stood at 2.18 µM with SF-295 CNS; 0.43 µM with MDA-MB-435; 0.558 µM in the assay on SN12C renal; 2.03 µM in the assay on OVCAR-4 ovarian; 0.39 µM in the assay with UO-31 renal; 0.823 µM with NCI-H23 lung. This compound also came in with a TGI in the assay on HCC-2998 colon of 1.8 µM.

For the compound `CCOc1nnnc2nc[nH]c12`, the TGI in the assay with NCI-H460 lung, in the assay on SF-539 CNS, in the assay on COLO 205 colon, in the assay with SNB-75 CNS, in the assay on OVCAR-5 ovarian and in the assay with NCI/ADR-RES ovarian was over 100 µM throughout. Moreover, the TGI with UACC-62 melanoma, in the assay on A549 NSCLC, with EKVX NSCLC, with HCT-116 colon, in the assay with M14 melanoma and in the assay with PC-3 prostate was over 100 µM in each case. Besides, the TGI in the assay with SF-295 CNS, in the assay on MDA-MB-435, with SN12C renal, in the assay on OVCAR-4 ovarian, in the assay with UO-31 renal and with NCI-H23 lung was over 100 µM in each case. In the assay with HCC-2998 colon, this compound displayed a TGI of over 100 µM.

Regarding `CNCCCn1c2ccccc2c2c3c(c(-c4ccsc4)cc21)C(=O)NC3=O`, the TGI amounted to 0.182 µM with SF-539 CNS; 2.71 µM with COLO 205 colon; 3.43 µM with SNB-75 CNS; 3.16 µM with OVCAR-5 ovarian; 2.19 µM in the assay with NCI/ADR-RES ovarian; 2.76 µM in the assay on A549 NSCLC. Moreover, the TGI came out at 3.75 µM with EKVX NSCLC; 2.79 µM in the assay on HCT-116 colon; 1.7 µM in the assay on M14 melanoma; 1.78 µM in the assay on PC-3 prostate; 1.71 µM in the assay on SF-295 CNS; 2.35 µM with MDA-MB-435. For the same compound, the TGI in the assay with SN12C renal amounted to 2.7 µM; in the assay on OVCAR-4 ovarian, 3.22 µM; in the assay on UO-31 renal it was 0.218 µM; with NCI-H23 lung, 1.74 µM; with HCC-2998 colon, 55.5 µM.

Consider `O=C(N(O)c1ccccc1Cl)C(O)(c1ccccc1)c1ccccc1`, for which the TGI in the assay on NCI-H460 lung, in the assay with SF-539 CNS, with COLO 205 colon, in the assay on OVCAR-5 ovarian, in the assay on NCI/ADR-RES ovarian and in the assay on UACC-62 melanoma was over 100 µM in each case. For the same compound, the TGI was over 100 µM in the assay with A549 NSCLC; over 100 µM in the assay with EKVX NSCLC; 71.5 µM in the assay with K-562 leukemia; over 100 µM with HCT-116 colon; over 100 µM with M14 melanoma; over 100 µM with PC-3 prostate. The TGI is over 100 µM with SF-295 CNS; over 100 µM in the assay with MDA-MB-435; over 100 µM in the assay with SN12C renal; over 100 µM in the assay on OVCAR-4 ovarian; 57.9 µM with UO-31 renal; over 100 µM with NCI-H23 lung. The same compound yielded a TGI with HCC-2998 colon of over 100 µM.

For the compound `C=C(Nc1nc2ccc(C)cc2s1)C(=O)C(CC)C(=O)C(CC)CC1C(=O)NC(=O)NC1=O` (stereo not given), the TGI in the assay with NCI-H460 lung, with SF-539 CNS, in the assay on COLO 205 colon, in the assay with SNB-75 CNS, in the assay with OVCAR-5 ovarian and in the assay with NCI/ADR-RES ovarian was over 100 µM each time. Further, the TGI with UACC-62 melanoma, in the assay on A549 NSCLC, in the assay with EKVX NSCLC, with HCT-116 colon, in the assay on M14 melanoma and in the assay with PC-3 prostate was over 100 µM throughout. Further, the TGI in the assay with SF-295 CNS, with MDA-MB-435, with SN12C renal, in the assay with OVCAR-4 ovarian, in the assay with UO-31 renal and in the assay on NCI-H23 lung was over 100 µM throughout. The compound also had a TGI in the assay on HCC-2998 colon of over 100 µM.

Regarding `COC(=O)C1=C(O)c2ccc(Cl)cc2S(=O)(=O)N1C`, the TGI with NCI-H460 lung is over 100 µM; with COLO 205 colon, over 100 µM; in the assay with OVCAR-5 ovarian, over 100 µM; in the assay on NCI/ADR-RES ovarian, 95 µM; in the assay with UACC-62 melanoma it was over 100 µM; with A549 NSCLC it was over 100 µM. Besides, the TGI in the assay with EKVX NSCLC, in the assay on K-562 leukemia, with HCT-116 colon, with M14 melanoma, in the assay with PC-3 prostate and with SF-295 CNS was over 100 µM each time. Further, the TGI in the assay on MDA-MB-435, with SN12C renal, in the assay on OVCAR-4 ovarian, with NCI-H23 lung and in the assay on HCC-2998 colon was over 100 µM each time.

These data come from PubChem BioAssay (NCI).
